The results in this text go back to patent US20120129878A1, “TABLET” (Takeda Pharmaceutical Company Limited, priority 2009, published 2012).

The target in this assay is dipeptidyl peptidase (DPP-IV) (Homo sapiens, UniProt P27487). Put plainly: DPP-IV inhibitory activity (statement only). The format is biochemical. The note with it: metabolite of compound (A); statement without data.

Each structure is given as a SMILES string.

dipeptidyl peptidase (DPP-IV), sequence (P27487 whole entry, species assumed): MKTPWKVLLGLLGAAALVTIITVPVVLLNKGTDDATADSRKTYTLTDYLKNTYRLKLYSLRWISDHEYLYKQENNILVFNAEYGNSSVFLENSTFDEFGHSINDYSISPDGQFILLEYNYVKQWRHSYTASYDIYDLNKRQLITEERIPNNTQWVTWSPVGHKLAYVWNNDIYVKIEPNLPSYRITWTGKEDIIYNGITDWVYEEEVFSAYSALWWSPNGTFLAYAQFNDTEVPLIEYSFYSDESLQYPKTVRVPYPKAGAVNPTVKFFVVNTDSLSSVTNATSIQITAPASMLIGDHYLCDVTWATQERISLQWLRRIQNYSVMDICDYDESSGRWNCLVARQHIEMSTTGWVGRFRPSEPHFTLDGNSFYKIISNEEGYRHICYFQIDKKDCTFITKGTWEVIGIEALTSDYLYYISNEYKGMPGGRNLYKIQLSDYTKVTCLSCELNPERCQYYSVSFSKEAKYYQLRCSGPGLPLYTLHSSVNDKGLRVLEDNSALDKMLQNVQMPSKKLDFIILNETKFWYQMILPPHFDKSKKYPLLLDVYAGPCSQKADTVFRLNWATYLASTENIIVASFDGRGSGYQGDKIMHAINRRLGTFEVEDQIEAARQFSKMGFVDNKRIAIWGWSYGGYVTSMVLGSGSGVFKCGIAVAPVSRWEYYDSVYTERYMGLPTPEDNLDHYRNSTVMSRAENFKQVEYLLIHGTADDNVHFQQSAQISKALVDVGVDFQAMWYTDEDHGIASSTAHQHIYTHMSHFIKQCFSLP

With `N#Cc1ccc(F)cc1Cn1c(N2CCC[C@@H](N)C2)cc(=O)[nH]c1=O`, the DPP-IV inhibitory activity result was “has a DPP-IV inhibitory activity”.
